From patent publication US6602690B2, “Process for production of dihomo-γ-linolenic acid and lipid containing same” (Suntory, Ltd., priority 1991, dated 2003)

Assays:
[1] = system: mutant Mortierella alpina SAM 1860; assay: Culturing of mutant Mortierella alpina SAM 1860 in medium with added substrate (Example 3), fatty acid methyl esters analysed by gas chromatography; format: cell-based; conditions: 0.5% additive in medium with 2% glucose, 1% yeast extract, 0.2% Tween 20; 28° C., 7 days
Protocol: These cells were extracted with a solvent of one phase chloroform/methanol/water according to Bligh & Dyer extraction method to obtain total lipids in an amount of 505 mg from the strain IFO 8568, and an amount of 530 mg from the mutant SAM 1860. These lipids were subjected to methyl-esterification using anhydrous methanol/hydrochloric acid (95:5) at 50° C. for 3 hours, and the resulting fatty acid methyl esters were extracted to obtain 417 mg of a total fatty acid methyl ester preparation from the strain IFO 8568, and 454 mg of a total fatty acid preparation from the mutant SAM 1860. The fatty acid methyl ester preparations were analyzed by gas chromatography.
20 ml of a medium (pH 6.0) containing 2% glucose; 1% yeast extract; 0.2% Tween 20; and 0.5% hydrocarbon, sodium salt of fatty acid, fatty acid ester, or fat or oil, was put into a 100 ml Erlenmeyer flask, and autoclaved at 120° C. for 20 minutes.
A mutant Mortierella alpina SAM 1860 was added to each flask, and cultured on a reciprocating shaker (110 rpm) at 28° C. for 7 days. For the resulting cell preparations, fatty acid methyl esters were analyzed by gas chromatography as described in Example 1.

[2] = system: mutant SAM 1860; assay: Culturing of mutant SAM 1860 with sesamin-containing soybean oil (Example 5); format: cell-based, Mortierella alpina
Protocol: (§1) 100 ml each of a medium (pH 6.0) containing 4% glucose and 1% yeast extract was put into 4 Erlenmeyer flasks having a volume of 500 ml, and 0.5 ml each of soybean oil in which sesamin (2,6-bis-(3,4-methylenedioxyphenyl)-cis-3,7-dioxabicyclo[3,3,0]octane) had been dissolved to a sesamin concentration of 15% by weight was added to 2 flasks, and 0.5 ml each of soybean oil was added 2 other flasks, and the flasks were sterilized at 120° C. for 20 minutes.
(§2) Mortierella alpina IFO 8568 (Comparative Example) was added to two different media, and the mutant SAM 1860 (Example) was add to other different media.
(§3) The strains were cultured on a reciprocating shaker (110 rpm) at 28° C. for 7 days. After 24 hours from the start of culturing, 0.5 ml each of the sesamin-containing soybean oil was added to the media to which the sesamin-containing soybean oil had been added, and 0.5 ml each of soybean oil was added to the media to which soybean oil had been added. After culturing, a fatty acid methyl ester preparation was analyzed by gas chromatography as described in Example 1.

[3] = system: Mortierella alpina IFO 8568; assay: Culturing of Mortierella alpina IFO 8568 with sesamin-containing soybean oil (Example 5, Comparative Example); format: cell-based; conditions: strain IFO 8568; soybean oil with 15% by weight sesamin, 0.5 ml at start and after 24 hours per 100 ml; 28° C., 7 days
Protocol: as §1, §2, §3

[4] = Example 5 cultures (Table 4), strain not specified

CCCCCCCCCCCCCCCC [Hexadecane] was tested, and the ARA [1] was 0.55 g/L, the DGLA [1] was 1.89 g/L and the Dry cells [1] was 18.1 g/L.

CCCCC/C=C\C/C=C\CCCCCCCC(=O)OC [Methyl linoleate] was tested, and the ARA [1] was 0.60 g/L, the DGLA [1] was 2.15 g/L and the Dry cells [1] was 18.7 g/L.

Work on CCCCCCCC/C=C\CCCCCCCC(=O)OC [Methyl oleate] yielded an ARA [1] of 0.56 g/L, a DGLA [1] of 1.99 g/L and a Dry cells [1] of 18.1 g/L.

CCCCCCCCCCCCCCCCCC [Octadecane] gave an ARA [1] of 0.50 g/L, a DGLA [1] of 1.80 g/L and a Dry cells [1] of 18.3 g/L.

CCCCC/C=C\C/C=C\CCCCCCCC(=O)[O-].[Na+] [Sodium linoleate] gave an ARA [1] of 0.49 g/L, a DGLA [1] of 1.40 g/L and a Dry cells [1] of 14.8 g/L.

Work on CCCCCCCC/C=C\CCCCCCCC(=O)[O-].[Na+] [Sodium oleate] yielded an ARA [1] of 0.48 g/L, a DGLA [1] of 1.40 g/L and a Dry cells [1] of 15.5 g/L.

In the case of c1cc2c(cc1[C@H]1OC[C@H]3[C@@H]1CO[C@@H]3c1ccc3c(c1)OCO3)OCO2 [sesamin, 2,6-bis-(3,4-methylenedioxyphenyl)-cis-3,7-dioxabicyclo[3,3,0]octane], the “effect of addition on the amount of dry cells” value [2, 4] is reported as “did not effect”, the “effect of addition on the amount of total fatty acids produced” value [2, 4] is reported as “did not effect” and the “Ratio of DGLA:ARA” value ([2]; mutant SAM 1860, soybean oil with 15% by weight sesamin, 0.5 ml at start and after 24 hours per 100 ml, 28° C., 7 days) is reported as 12.3. The “Ratio of DGLA:ARA” value [3] was no more than 1.17.
